Assay results as given in patent publication US8772480B2, “Inhibitors of PI3 kinase and/or mTOR” (priority 2009, dated 2014).

biological target: ProfilerPro Kinase Selectivity Assay Kit kinases (Homo sapiens, UniProt P23443); assay type: biochemical; conditions: p70S6K; 1 μM compound concentration
Experimental: (§1) Compounds were profiled using a LabChip® EZ Reader II platform and a ProfilerPro Kinase Selectivity Assay Kit (Caliper Lifesciences Inc., Hopkinton, Mass.). Compounds were tested at a concentration of 1 M in duplicate, with mean data reported as percent of control (POC).

Row | Compound | POC (Percent of control) p70S6K
1 | Cc1nc(N)nc(-c2cccnc2Nc2cccc(O)c2)n1 [Example 23, 3-(3-(4-Amino-6-Methyl-1,3,5-Triazin-2-yl)Pyridin-2-Ylamino)Phenol] | 112 POC

biological target: ProfilerPro Kinase Selectivity Assay Kit kinases (Homo sapiens, UniProt O14757); assay type: biochemical; conditions: CHK1; 1 μM compound concentration
Experimental: as §1

Row | Compound | POC (Percent of control) CHK1
2 | Cc1nc(N)nc(-c2cccnc2Nc2cccc(O)c2)n1 [Example 23, 3-(3-(4-Amino-6-Methyl-1,3,5-Triazin-2-yl)Pyridin-2-Ylamino)Phenol] | 105 POC

biological target: ProfilerPro Kinase Selectivity Assay Kit kinases (Homo sapiens, UniProt P06239); assay type: biochemical; conditions: LCK; 1 μM compound concentration
Sequence (P06239 2-509 limits assumed): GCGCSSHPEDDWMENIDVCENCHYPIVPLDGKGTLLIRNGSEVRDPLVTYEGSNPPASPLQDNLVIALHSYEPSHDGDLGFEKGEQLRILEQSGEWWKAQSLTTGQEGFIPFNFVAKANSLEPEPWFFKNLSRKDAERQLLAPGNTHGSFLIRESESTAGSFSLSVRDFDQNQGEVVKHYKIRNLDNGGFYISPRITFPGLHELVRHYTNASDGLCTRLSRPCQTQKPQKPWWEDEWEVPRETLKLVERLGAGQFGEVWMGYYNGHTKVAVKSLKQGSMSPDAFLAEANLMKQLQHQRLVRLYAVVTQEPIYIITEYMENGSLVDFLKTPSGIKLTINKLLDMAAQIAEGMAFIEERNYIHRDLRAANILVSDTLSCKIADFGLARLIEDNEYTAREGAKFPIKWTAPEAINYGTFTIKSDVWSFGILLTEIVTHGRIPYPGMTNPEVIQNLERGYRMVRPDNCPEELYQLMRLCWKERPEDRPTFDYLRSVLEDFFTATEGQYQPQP
Experimental: as §1

Row | Compound | POC (Percent of control) LCK
3 | Cc1nc(N)nc(-c2cccnc2Nc2cccc(O)c2)n1 [Example 23, 3-(3-(4-Amino-6-Methyl-1,3,5-Triazin-2-yl)Pyridin-2-Ylamino)Phenol] | 97 POC

biological target: ProfilerPro Kinase Selectivity Assay Kit kinases (Homo sapiens, UniProt P28482); assay type: biochemical; conditions: ERK2; 1 μM compound concentration
Sequence (P28482 2-360 limits assumed): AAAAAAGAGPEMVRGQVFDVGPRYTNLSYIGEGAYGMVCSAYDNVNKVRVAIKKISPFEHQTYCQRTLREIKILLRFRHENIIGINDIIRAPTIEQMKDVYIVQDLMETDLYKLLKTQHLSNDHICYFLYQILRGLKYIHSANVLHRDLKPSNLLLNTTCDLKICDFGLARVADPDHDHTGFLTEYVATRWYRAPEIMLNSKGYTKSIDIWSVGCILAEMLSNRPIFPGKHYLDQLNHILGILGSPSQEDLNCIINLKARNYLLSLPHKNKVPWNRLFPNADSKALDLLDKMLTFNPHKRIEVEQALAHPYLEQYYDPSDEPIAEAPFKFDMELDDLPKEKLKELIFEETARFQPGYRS
Experimental: as §1

Row | Compound | POC (Percent of control) ERK2
4 | Cc1nc(N)nc(-c2cccnc2Nc2cccc(O)c2)n1 [Example 23, 3-(3-(4-Amino-6-Methyl-1,3,5-Triazin-2-yl)Pyridin-2-Ylamino)Phenol] | 103 POC

biological target: ProfilerPro Kinase Selectivity Assay Kit kinases (Homo sapiens, UniProt Q13627); assay type: biochemical; conditions: DYRK1a; 1 μM compound concentration
Experimental: as §1

Row | Compound | POC (Percent of control) DYRK1a
5 | Cc1nc(N)nc(-c2cccnc2Nc2cccc(O)c2)n1 [Example 23, 3-(3-(4-Amino-6-Methyl-1,3,5-Triazin-2-yl)Pyridin-2-Ylamino)Phenol] | 93 POC

system: ProfilerPro Kinase Selectivity Assay Kit kinases; assay type: biochemical; conditions: AMPK; 1 μM compound concentration
Experimental: as §1

Row | Compound | POC (Percent of control) AMPK
6 | Cc1nc(N)nc(-c2cccnc2Nc2cccc(O)c2)n1 [Example 23, 3-(3-(4-Amino-6-Methyl-1,3,5-Triazin-2-yl)Pyridin-2-Ylamino)Phenol] | 98 POC

same assay, conditions: CAMK2; 1 μM compound concentration

Row | Compound | POC (Percent of control) CAMK2
7 | Cc1nc(N)nc(-c2cccnc2Nc2cccc(O)c2)n1 [Example 23, 3-(3-(4-Amino-6-Methyl-1,3,5-Triazin-2-yl)Pyridin-2-Ylamino)Phenol] | 108 POC

same assay, conditions: PKC beta2; 1 μM compound concentration

Row | Compound | POC (Percent of control) PKC beta2
8 | Cc1nc(N)nc(-c2cccnc2Nc2cccc(O)c2)n1 [Example 23, 3-(3-(4-Amino-6-Methyl-1,3,5-Triazin-2-yl)Pyridin-2-Ylamino)Phenol] | 92 POC

same assay, conditions: TAK1; 1 μM compound concentration

Row | Compound | POC (Percent of control) TAK1
9 | Cc1nc(N)nc(-c2cccnc2Nc2cccc(O)c2)n1 [Example 23, 3-(3-(4-Amino-6-Methyl-1,3,5-Triazin-2-yl)Pyridin-2-Ylamino)Phenol] | 102 POC

biological target: ProfilerPro Kinase Selectivity Assay Kit kinases (Homo sapiens, UniProt P31749); assay type: biochemical; conditions: AKT1; 1 μM compound concentration
Experimental: as §1

Row | Compound | POC (Percent of control) AKT1
10 | Cc1nc(N)nc(-c2cccnc2Nc2cccc(O)c2)n1 [Example 23, 3-(3-(4-Amino-6-Methyl-1,3,5-Triazin-2-yl)Pyridin-2-Ylamino)Phenol] | 103 POC

biological target: ProfilerPro Kinase Selectivity Assay Kit kinases (Homo sapiens, UniProt P36888); assay type: biochemical; conditions: FLT3; 1 μM compound concentration
Experimental: as §1

Row | Compound | POC (Percent of control) FLT3
11 | Cc1nc(N)nc(-c2cccnc2Nc2cccc(O)c2)n1 [Example 23, 3-(3-(4-Amino-6-Methyl-1,3,5-Triazin-2-yl)Pyridin-2-Ylamino)Phenol] | 106 POC

biological target: ProfilerPro Kinase Selectivity Assay Kit kinases (Homo sapiens, UniProt O96017); assay type: biochemical; conditions: CHK2; 1 μM compound concentration
Experimental: as §1

Row | Compound | POC (Percent of control) CHK2
12 | Cc1nc(N)nc(-c2cccnc2Nc2cccc(O)c2)n1 [Example 23, 3-(3-(4-Amino-6-Methyl-1,3,5-Triazin-2-yl)Pyridin-2-Ylamino)Phenol] | 101 POC

biological target: ProfilerPro Kinase Selectivity Assay Kit kinases (Homo sapiens, UniProt P08581); assay type: biochemical; conditions: cMET; 1 μM compound concentration
Sequence (P08581 25-1390 limits assumed): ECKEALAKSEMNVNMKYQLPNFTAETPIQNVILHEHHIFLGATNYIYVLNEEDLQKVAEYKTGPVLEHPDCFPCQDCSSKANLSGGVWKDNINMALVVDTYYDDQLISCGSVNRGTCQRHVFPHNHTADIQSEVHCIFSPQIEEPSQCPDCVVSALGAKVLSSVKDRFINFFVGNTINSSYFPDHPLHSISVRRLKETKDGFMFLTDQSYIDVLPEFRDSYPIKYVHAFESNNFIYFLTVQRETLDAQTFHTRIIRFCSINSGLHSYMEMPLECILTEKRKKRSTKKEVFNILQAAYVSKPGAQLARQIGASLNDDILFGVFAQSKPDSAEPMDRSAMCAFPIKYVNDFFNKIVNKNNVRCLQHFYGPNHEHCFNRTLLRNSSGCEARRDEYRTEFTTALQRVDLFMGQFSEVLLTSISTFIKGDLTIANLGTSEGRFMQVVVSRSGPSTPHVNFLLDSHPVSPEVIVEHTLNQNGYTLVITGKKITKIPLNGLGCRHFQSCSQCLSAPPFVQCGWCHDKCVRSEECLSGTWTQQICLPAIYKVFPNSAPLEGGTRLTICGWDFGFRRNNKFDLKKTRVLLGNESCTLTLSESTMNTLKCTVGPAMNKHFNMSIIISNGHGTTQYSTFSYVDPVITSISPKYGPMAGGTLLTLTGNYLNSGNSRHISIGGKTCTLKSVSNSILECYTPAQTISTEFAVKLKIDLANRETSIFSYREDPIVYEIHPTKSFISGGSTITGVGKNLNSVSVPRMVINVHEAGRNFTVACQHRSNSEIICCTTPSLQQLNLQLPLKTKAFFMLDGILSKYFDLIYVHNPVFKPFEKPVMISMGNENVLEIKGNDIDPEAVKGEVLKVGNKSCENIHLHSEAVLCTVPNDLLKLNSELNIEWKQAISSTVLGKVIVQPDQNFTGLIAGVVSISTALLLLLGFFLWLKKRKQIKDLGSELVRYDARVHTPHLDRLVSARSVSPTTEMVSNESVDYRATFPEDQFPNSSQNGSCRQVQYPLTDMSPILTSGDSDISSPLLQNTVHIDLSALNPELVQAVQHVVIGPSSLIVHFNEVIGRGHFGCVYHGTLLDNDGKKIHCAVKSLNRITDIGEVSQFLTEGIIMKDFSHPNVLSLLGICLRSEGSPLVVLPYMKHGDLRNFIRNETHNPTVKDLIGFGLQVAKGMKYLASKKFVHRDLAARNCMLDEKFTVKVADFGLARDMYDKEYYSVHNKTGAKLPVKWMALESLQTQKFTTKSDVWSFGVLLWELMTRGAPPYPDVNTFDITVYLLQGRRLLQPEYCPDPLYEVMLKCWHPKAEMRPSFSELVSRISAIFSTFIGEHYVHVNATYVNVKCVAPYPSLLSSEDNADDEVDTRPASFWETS
Experimental: as §1

Row | Compound | POC (Percent of control) cMET
13 | Cc1nc(N)nc(-c2cccnc2Nc2cccc(O)c2)n1 [Example 23, 3-(3-(4-Amino-6-Methyl-1,3,5-Triazin-2-yl)Pyridin-2-Ylamino)Phenol] | 104 POC

biological target: ProfilerPro Kinase Selectivity Assay Kit kinases (Homo sapiens, UniProt P00519); assay type: biochemical; conditions: ABL; 1 μM compound concentration
Experimental: as §1

Row | Compound | POC (Percent of control) ABL
14 | Cc1nc(N)nc(-c2cccnc2Nc2cccc(O)c2)n1 [Example 23, 3-(3-(4-Amino-6-Methyl-1,3,5-Triazin-2-yl)Pyridin-2-Ylamino)Phenol] | 97 POC

biological target: ProfilerPro Kinase Selectivity Assay Kit kinases (Homo sapiens, UniProt P04049); assay type: biochemical; conditions: cRAF; 1 μM compound concentration
Experimental: as §1

Row | Compound | POC (Percent of control) cRAF
15 | Cc1nc(N)nc(-c2cccnc2Nc2cccc(O)c2)n1 [Example 23, 3-(3-(4-Amino-6-Methyl-1,3,5-Triazin-2-yl)Pyridin-2-Ylamino)Phenol] | 108 POC

biological target: ProfilerPro Kinase Selectivity Assay Kit kinases (Homo sapiens, UniProt Q06187); assay type: biochemical; conditions: BTK; 1 μM compound concentration
Experimental: as §1

Row | Compound | POC (Percent of control) BTK
16 | Cc1nc(N)nc(-c2cccnc2Nc2cccc(O)c2)n1 [Example 23, 3-(3-(4-Amino-6-Methyl-1,3,5-Triazin-2-yl)Pyridin-2-Ylamino)Phenol] | 100 POC

biological target: ProfilerPro Kinase Selectivity Assay Kit kinases (Homo sapiens, UniProt Q16566); assay type: biochemical; conditions: CAMK4; 1 μM compound concentration
Experimental: as §1

Row | Compound | POC (Percent of control) CAMK4
17 | Cc1nc(N)nc(-c2cccnc2Nc2cccc(O)c2)n1 [Example 23, 3-(3-(4-Amino-6-Methyl-1,3,5-Triazin-2-yl)Pyridin-2-Ylamino)Phenol] | 98 POC

biological target: ProfilerPro Kinase Selectivity Assay Kit kinases (Homo sapiens, UniProt Q9P1W9); assay type: biochemical; conditions: PIM2; 1 μM compound concentration
Experimental: as §1

Row | Compound | POC (Percent of control) PIM2
18 | Cc1nc(N)nc(-c2cccnc2Nc2cccc(O)c2)n1 [Example 23, 3-(3-(4-Amino-6-Methyl-1,3,5-Triazin-2-yl)Pyridin-2-Ylamino)Phenol] | 99 POC

biological target: ProfilerPro Kinase Selectivity Assay Kit kinases (Homo sapiens, UniProt Q13976); assay type: biochemical; conditions: PKGa2; 1 μM compound concentration
Sequence (Q13976 2-671 limits assumed): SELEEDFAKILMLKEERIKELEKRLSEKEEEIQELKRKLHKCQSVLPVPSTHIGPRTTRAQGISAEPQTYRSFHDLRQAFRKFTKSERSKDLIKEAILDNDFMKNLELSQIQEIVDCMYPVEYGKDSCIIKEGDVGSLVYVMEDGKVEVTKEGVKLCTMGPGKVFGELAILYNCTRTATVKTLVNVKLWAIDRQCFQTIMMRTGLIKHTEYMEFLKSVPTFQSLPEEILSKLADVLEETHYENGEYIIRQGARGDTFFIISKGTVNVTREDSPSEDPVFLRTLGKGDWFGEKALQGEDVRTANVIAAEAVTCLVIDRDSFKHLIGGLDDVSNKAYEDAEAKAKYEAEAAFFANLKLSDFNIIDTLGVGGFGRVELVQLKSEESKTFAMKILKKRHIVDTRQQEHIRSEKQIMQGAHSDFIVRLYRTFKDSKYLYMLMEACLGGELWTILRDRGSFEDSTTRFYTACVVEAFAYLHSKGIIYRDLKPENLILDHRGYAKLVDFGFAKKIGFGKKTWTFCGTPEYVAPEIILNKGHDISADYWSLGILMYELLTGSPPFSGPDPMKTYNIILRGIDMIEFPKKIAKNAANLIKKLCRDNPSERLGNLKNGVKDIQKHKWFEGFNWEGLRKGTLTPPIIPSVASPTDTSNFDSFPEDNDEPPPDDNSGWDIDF
Experimental: as §1

Row | Compound | POC (Percent of control) PKGa2
19 | Cc1nc(N)nc(-c2cccnc2Nc2cccc(O)c2)n1 [Example 23, 3-(3-(4-Amino-6-Methyl-1,3,5-Triazin-2-yl)Pyridin-2-Ylamino)Phenol] | 87 POC

biological target: ProfilerPro Kinase Selectivity Assay Kit kinases (Homo sapiens, UniProt P11362); assay type: biochemical; conditions: FGFR1; 1 μM compound concentration
Sequence (P11362 22-822 limits assumed): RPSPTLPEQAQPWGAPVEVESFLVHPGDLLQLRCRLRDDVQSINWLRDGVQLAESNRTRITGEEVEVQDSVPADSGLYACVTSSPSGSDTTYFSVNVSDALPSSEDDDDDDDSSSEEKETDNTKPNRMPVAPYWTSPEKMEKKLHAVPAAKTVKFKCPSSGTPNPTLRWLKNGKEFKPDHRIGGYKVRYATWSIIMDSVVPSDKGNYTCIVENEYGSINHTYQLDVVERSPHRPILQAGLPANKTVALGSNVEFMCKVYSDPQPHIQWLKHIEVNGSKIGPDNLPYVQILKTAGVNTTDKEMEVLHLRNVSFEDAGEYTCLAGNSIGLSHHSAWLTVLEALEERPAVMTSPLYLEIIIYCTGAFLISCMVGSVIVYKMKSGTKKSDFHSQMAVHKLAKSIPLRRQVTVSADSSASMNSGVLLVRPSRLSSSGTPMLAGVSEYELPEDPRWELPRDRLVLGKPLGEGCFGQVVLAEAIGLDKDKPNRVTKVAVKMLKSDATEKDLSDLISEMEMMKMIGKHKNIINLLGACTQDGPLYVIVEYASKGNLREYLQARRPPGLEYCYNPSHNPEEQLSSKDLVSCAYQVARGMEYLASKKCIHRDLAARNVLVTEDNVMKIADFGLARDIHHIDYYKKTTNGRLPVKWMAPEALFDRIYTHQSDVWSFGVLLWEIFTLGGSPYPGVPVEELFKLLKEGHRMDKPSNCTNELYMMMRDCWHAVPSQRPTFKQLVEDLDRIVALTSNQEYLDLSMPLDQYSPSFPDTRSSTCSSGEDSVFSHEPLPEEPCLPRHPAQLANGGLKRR
Experimental: as §1

Row | Compound | POC (Percent of control) FGFR1
20 | Cc1nc(N)nc(-c2cccnc2Nc2cccc(O)c2)n1 [Example 23, 3-(3-(4-Amino-6-Methyl-1,3,5-Triazin-2-yl)Pyridin-2-Ylamino)Phenol] | 99 POC

biological target: ProfilerPro Kinase Selectivity Assay Kit kinases (Homo sapiens, UniProt P24941); assay type: biochemical; conditions: CDK2; 1 μM compound concentration
Experimental: as §1

Row | Compound | POC (Percent of control) CDK2
21 | Cc1nc(N)nc(-c2cccnc2Nc2cccc(O)c2)n1 [Example 23, 3-(3-(4-Amino-6-Methyl-1,3,5-Triazin-2-yl)Pyridin-2-Ylamino)Phenol] | 106 POC

biological target: ProfilerPro Kinase Selectivity Assay Kit kinases (Homo sapiens, UniProt O00141); assay type: biochemical; conditions: SGK1; 1 μM compound concentration
Experimental: as §1

Row | Compound | POC (Percent of control) SGK1
22 | Cc1nc(N)nc(-c2cccnc2Nc2cccc(O)c2)n1 [Example 23, 3-(3-(4-Amino-6-Methyl-1,3,5-Triazin-2-yl)Pyridin-2-Ylamino)Phenol] | 102 POC

biological target: ProfilerPro Kinase Selectivity Assay Kit kinases (Homo sapiens, UniProt Q8IW41); assay type: biochemical; conditions: PRAK; 1 μM compound concentration
Experimental: as §1

Row | Compound | POC (Percent of control) PRAK
23 | Cc1nc(N)nc(-c2cccnc2Nc2cccc(O)c2)n1 [Example 23, 3-(3-(4-Amino-6-Methyl-1,3,5-Triazin-2-yl)Pyridin-2-Ylamino)Phenol] | 97 POC

biological target: ProfilerPro Kinase Selectivity Assay Kit kinases (Homo sapiens, UniProt O75582); assay type: biochemical; conditions: MSK1; 1 μM compound concentration
Experimental: as §1

Row | Compound | POC (Percent of control) MSK1
24 | Cc1nc(N)nc(-c2cccnc2Nc2cccc(O)c2)n1 [Example 23, 3-(3-(4-Amino-6-Methyl-1,3,5-Triazin-2-yl)Pyridin-2-Ylamino)Phenol] | 112 POC

biological target: ProfilerPro Kinase Selectivity Assay Kit kinases (Homo sapiens, UniProt P27361); assay type: biochemical; conditions: ERK1; 1 μM compound concentration
Sequence (P27361 2-379 limits assumed): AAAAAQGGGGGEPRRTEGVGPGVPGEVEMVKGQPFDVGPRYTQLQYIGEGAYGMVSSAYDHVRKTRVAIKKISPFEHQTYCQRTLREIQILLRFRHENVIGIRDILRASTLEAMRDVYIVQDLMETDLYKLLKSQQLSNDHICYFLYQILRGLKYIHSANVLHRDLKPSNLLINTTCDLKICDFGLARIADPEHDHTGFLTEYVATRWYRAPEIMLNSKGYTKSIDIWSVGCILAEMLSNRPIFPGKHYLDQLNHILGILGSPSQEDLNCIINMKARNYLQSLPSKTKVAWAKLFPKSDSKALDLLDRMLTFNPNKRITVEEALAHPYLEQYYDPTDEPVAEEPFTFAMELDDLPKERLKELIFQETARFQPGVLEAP
Experimental: as §1

Row | Compound | POC (Percent of control) ERK1
25 | Cc1nc(N)nc(-c2cccnc2Nc2cccc(O)c2)n1 [Example 23, 3-(3-(4-Amino-6-Methyl-1,3,5-Triazin-2-yl)Pyridin-2-Ylamino)Phenol] | 104 POC

biological target: ProfilerPro Kinase Selectivity Assay Kit kinases (Homo sapiens, UniProt Q9P0L2); assay type: biochemical; conditions: MARK1; 1 μM compound concentration
Experimental: as §1

Row | Compound | POC (Percent of control) MARK1
26 | Cc1nc(N)nc(-c2cccnc2Nc2cccc(O)c2)n1 [Example 23, 3-(3-(4-Amino-6-Methyl-1,3,5-Triazin-2-yl)Pyridin-2-Ylamino)Phenol] | 97 POC

biological target: ProfilerPro Kinase Selectivity Assay Kit kinases (Homo sapiens, UniProt P35968); assay type: biochemical; conditions: KDR; 1 μM compound concentration
Experimental: as §1

Row | Compound | POC (Percent of control) KDR
27 | Cc1nc(N)nc(-c2cccnc2Nc2cccc(O)c2)n1 [Example 23, 3-(3-(4-Amino-6-Methyl-1,3,5-Triazin-2-yl)Pyridin-2-Ylamino)Phenol] | 105 POC

biological target: ProfilerPro Kinase Selectivity Assay Kit kinases (Homo sapiens, UniProt Q16539); assay type: biochemical; conditions: p38 alpha; 1 μM compound concentration
Sequence (Q16539 2-360 limits assumed): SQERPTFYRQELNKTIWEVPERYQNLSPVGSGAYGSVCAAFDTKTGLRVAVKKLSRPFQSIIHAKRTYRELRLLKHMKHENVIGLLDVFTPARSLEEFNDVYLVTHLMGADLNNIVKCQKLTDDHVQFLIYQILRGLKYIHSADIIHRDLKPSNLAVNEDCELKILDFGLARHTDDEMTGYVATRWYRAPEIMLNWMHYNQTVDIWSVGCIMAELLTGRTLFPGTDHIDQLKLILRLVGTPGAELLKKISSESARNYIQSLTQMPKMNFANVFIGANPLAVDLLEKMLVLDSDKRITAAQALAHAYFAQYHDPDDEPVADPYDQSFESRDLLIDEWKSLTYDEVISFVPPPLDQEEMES
Experimental: as §1

Row | Compound | POC (Percent of control) p38 alpha
28 | Cc1nc(N)nc(-c2cccnc2Nc2cccc(O)c2)n1 [Example 23, 3-(3-(4-Amino-6-Methyl-1,3,5-Triazin-2-yl)Pyridin-2-Ylamino)Phenol] | 104 POC

biological target: ProfilerPro Kinase Selectivity Assay Kit kinases (Homo sapiens, UniProt Q05513); assay type: biochemical; conditions: PKC zeta; 1 μM compound concentration
Experimental: as §1

Row | Compound | POC (Percent of control) PKC zeta
29 | Cc1nc(N)nc(-c2cccnc2Nc2cccc(O)c2)n1 [Example 23, 3-(3-(4-Amino-6-Methyl-1,3,5-Triazin-2-yl)Pyridin-2-Ylamino)Phenol] | 102 POC

biological target: ProfilerPro Kinase Selectivity Assay Kit kinases (Homo sapiens, UniProt O75116); assay type: biochemical; conditions: ROCK2; 1 μM compound concentration
Experimental: as §1

Row | Compound | POC (Percent of control) ROCK2
30 | Cc1nc(N)nc(-c2cccnc2Nc2cccc(O)c2)n1 [Example 23, 3-(3-(4-Amino-6-Methyl-1,3,5-Triazin-2-yl)Pyridin-2-Ylamino)Phenol] | 101 POC

biological target: ProfilerPro Kinase Selectivity Assay Kit kinases (Homo sapiens, UniProt Q9BZL6); assay type: biochemical; conditions: PKD2; 1 μM compound concentration
Experimental: as §1

Row | Compound | POC (Percent of control) PKD2
31 | Cc1nc(N)nc(-c2cccnc2Nc2cccc(O)c2)n1 [Example 23, 3-(3-(4-Amino-6-Methyl-1,3,5-Triazin-2-yl)Pyridin-2-Ylamino)Phenol] | 104 POC

biological target: ProfilerPro Kinase Selectivity Assay Kit kinases (Homo sapiens, UniProt P49841); assay type: biochemical; conditions: GSK3 beta; 1 μM compound concentration
Experimental: as §1

Row | Compound | POC (Percent of control) GSK3 beta
32 | Cc1nc(N)nc(-c2cccnc2Nc2cccc(O)c2)n1 [Example 23, 3-(3-(4-Amino-6-Methyl-1,3,5-Triazin-2-yl)Pyridin-2-Ylamino)Phenol] | 96 POC

biological target: ProfilerPro Kinase Selectivity Assay Kit kinases (Homo sapiens, UniProt P49137); assay type: biochemical; conditions: MAPKAPK2; 1 μM compound concentration
Experimental: as §1

Row | Compound | POC (Percent of control) MAPKAPK2
33 | Cc1nc(N)nc(-c2cccnc2Nc2cccc(O)c2)n1 [Example 23, 3-(3-(4-Amino-6-Methyl-1,3,5-Triazin-2-yl)Pyridin-2-Ylamino)Phenol] | 99 POC

biological target: ProfilerPro Kinase Selectivity Assay Kit kinases (Homo sapiens, UniProt P07948); assay type: biochemical; conditions: LYN; 1 μM compound concentration
Sequence (P07948 2-512 limits assumed): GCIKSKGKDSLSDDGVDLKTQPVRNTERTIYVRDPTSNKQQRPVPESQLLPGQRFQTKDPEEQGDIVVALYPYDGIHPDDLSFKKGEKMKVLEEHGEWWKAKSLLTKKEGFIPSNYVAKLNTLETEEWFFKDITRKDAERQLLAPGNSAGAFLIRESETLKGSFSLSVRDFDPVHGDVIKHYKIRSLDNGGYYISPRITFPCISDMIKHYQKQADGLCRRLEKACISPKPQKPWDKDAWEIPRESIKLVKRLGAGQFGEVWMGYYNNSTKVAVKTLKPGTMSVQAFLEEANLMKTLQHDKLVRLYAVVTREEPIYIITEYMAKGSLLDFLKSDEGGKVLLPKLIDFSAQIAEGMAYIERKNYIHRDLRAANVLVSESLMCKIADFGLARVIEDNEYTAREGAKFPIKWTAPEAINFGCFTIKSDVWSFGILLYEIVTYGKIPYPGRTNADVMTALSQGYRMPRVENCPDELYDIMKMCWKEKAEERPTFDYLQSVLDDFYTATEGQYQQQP
Experimental: as §1

Row | Compound | POC (Percent of control) LYN
34 | Cc1nc(N)nc(-c2cccnc2Nc2cccc(O)c2)n1 [Example 23, 3-(3-(4-Amino-6-Methyl-1,3,5-Triazin-2-yl)Pyridin-2-Ylamino)Phenol] | 101 POC
